{
  "source": "PubChem BioAssay AID2061108",
  "about": "(Research group of Professor Matthew Todd, School of …, 2025)",
  "experiment_in_all_cases": "microbial growth inhibition plus red cell haemolysis – Idler compounds, first plate, PMBN-permeabilized strains, profiling panel (AID 2061108)",
  "design_in_all_cases": "haemolysis: dose or concentration left out as unconfirmed",
  "key": {"[1]": {"system": "E. coli NCTC 12923 + PMBN growth inhibition, 100 uM", "settings": "S. aureus ATCC 9144 growth inhibition; measured here: E. coli plus PMBN; at 100 µM; stronger effect = higher value"}, "[2]": {"system": "red blood cell haemolysis", "settings": "stronger effect = higher value; dose or concentration not given here"}, "[3]": {"system": "E. coli NCTC 12923 growth inhibition, 100 uM", "settings": "E. coli NCTC 12923 growth inhibition, 100 µM; stronger effect = higher value"}, "[4]": {"system": "C. albicans NCPF 3281 growth inhibition, 100 uM", "settings": "S. aureus ATCC 9144 growth inhibition; measured here: C. albicans NCPF 3281; at 100 µM; stronger effect = higher value"}, "[5]": {"system": "A. baumannii ATCC 17978 growth inhibition, 100 uM", "settings": "S. aureus ATCC 9144 growth inhibition; measured here: A. baumannii ATCC 17978; at 100 µM; stronger effect = higher value"}, "[6]": {"system": "M. abscessus growth inhibition, 10 uM", "settings": "S. aureus ATCC 9144 growth inhibition; measured here: M. abscessus; at 10 µM"}, "[7]": {"system": "M. avium growth inhibition, 10 uM", "settings": "M. avium growth inhibition, 10 µM"}, "[8]": {"system": "A. baumannii ATCC 17978 + PMBN growth inhibition, 100 uM", "settings": "A. baumannii plus PMBN growth inhibition, 100 µM; stronger effect = higher value"}, "[9]": {"system": "S. aureus ATCC 9144 growth inhibition, 100 uM", "settings": "S. aureus ATCC 9144 growth inhibition; at 100 µM; stronger effect = higher value"}},
  "note": "Activity calls are given as the source filed them. How the calls were made is not given here.",
  "data": [
    {"compound": "N#Cc1ccc(NC2Cc3cccc(O)c3C2)cc1Cl", "note": "(stereo not drawn)", "values": [
      {"measurement": "inhibition", "setting": "[1]", "result": 101, "unit": "%"},
      {"measurement": "haemolysis", "setting": "[2]", "result": 0.539, "unit": "%"},
      {"measurement": "inhibition", "setting": "[3]", "result": 25, "unit": "%"},
      {"measurement": "inhibition", "setting": "[4]", "result": 100, "unit": "%"},
      {"measurement": "inhibition", "setting": "[5]", "result": 65.2, "unit": "%"},
      {"measurement": "inhibition", "setting": "[6]", "result": -0.909, "unit": "%"},
      {"measurement": "inhibition", "setting": "[7]", "result": 0.34, "unit": "%"},
      {"measurement": "inhibition", "setting": "[8]", "result": 101, "unit": "%"},
      {"measurement": "inhibition", "setting": "[9]", "result": 100, "unit": "%"}
    ]},
    {"compound": "NC(=O)C1CCN(c2nc(OCc3ccc(F)nc3)nc(N3CCCOCC3)n2)CC1", "values": [
      {"measurement": "inhibition", "setting": "[1]", "result": -2.07, "unit": "%"},
      {"measurement": "haemolysis", "setting": "[2]", "result": 1.34, "unit": "%"},
      {"measurement": "inhibition", "setting": "[3]", "result": -2.97, "unit": "%"},
      {"measurement": "inhibition", "setting": "[4]", "result": -78.3, "unit": "%"},
      {"measurement": "inhibition", "setting": "[5]", "result": -0.843, "unit": "%"},
      {"measurement": "inhibition", "setting": "[6]", "result": -0.107, "unit": "%"},
      {"measurement": "inhibition", "setting": "[7]", "result": 0.922, "unit": "%"},
      {"measurement": "inhibition", "setting": "[8]", "result": 9.86, "unit": "%"},
      {"measurement": "inhibition", "setting": "[9]", "result": "18.4% (inactive)"}
    ]},
    {"compound": "CC(C)c1conc1CNc1ccnc(S(=O)(=O)F)c1", "values": [
      {"measurement": "inhibition", "setting": "[1]", "result": -0.37, "unit": "%"},
      {"measurement": "haemolysis", "setting": "[2]", "result": -0.292, "unit": "%"},
      {"measurement": "inhibition", "setting": "[3]", "result": -1.22, "unit": "%"},
      {"measurement": "inhibition", "setting": "[4]", "result": 11.6, "unit": "%"},
      {"measurement": "inhibition", "setting": "[5]", "result": -0.119, "unit": "%"},
      {"measurement": "inhibition", "setting": "[6]", "result": -1.22, "unit": "%"},
      {"measurement": "inhibition", "setting": "[7]", "result": 0.196, "unit": "%"},
      {"measurement": "inhibition", "setting": "[8]", "result": 13, "unit": "%"},
      {"measurement": "inhibition", "setting": "[9]", "result": "16.8% (inactive)"}
    ]},
    {"compound": "CCC(C)C(N)C(=O)NS(=O)(=O)c1cccc(-c2cc3ncnc(N)c3s2)c1", "note": "(stereo not drawn)", "values": [
      {"measurement": "inhibition", "setting": "[1]", "result": -27.4, "unit": "%"},
      {"measurement": "haemolysis", "setting": "[2]", "result": 0.094, "unit": "%"},
      {"measurement": "inhibition", "setting": "[3]", "result": -29.6, "unit": "%"},
      {"measurement": "inhibition", "setting": "[4]", "result": -21.7, "unit": "%"},
      {"measurement": "inhibition", "setting": "[5]", "result": -17.8, "unit": "%"},
      {"measurement": "inhibition", "setting": "[6]", "result": -0.383, "unit": "%"},
      {"measurement": "inhibition", "setting": "[7]", "result": 10.3, "unit": "%"},
      {"measurement": "inhibition", "setting": "[8]", "result": -15.9, "unit": "%"},
      {"measurement": "inhibition", "setting": "[9]", "result": "-39.6% (inactive)"}
    ]},
    {"compound": "O=C(N/N=C/c1ccc2cccc(O)c2n1)c1ccncc1", "values": [
      {"measurement": "inhibition", "setting": "[1]", "result": -1.73, "unit": "%"},
      {"measurement": "haemolysis", "setting": "[2]", "result": 0.565, "unit": "%"},
      {"measurement": "inhibition", "setting": "[3]", "result": 8.65, "unit": "%"},
      {"measurement": "inhibition", "setting": "[4]", "result": -33.7, "unit": "%"},
      {"measurement": "inhibition", "setting": "[5]", "result": 13.7, "unit": "%"},
      {"measurement": "inhibition", "setting": "[6]", "result": -0.775, "unit": "%"},
      {"measurement": "inhibition", "setting": "[7]", "result": -0.55, "unit": "%"},
      {"measurement": "inhibition", "setting": "[8]", "result": 37.1, "unit": "%"},
      {"measurement": "inhibition", "setting": "[9]", "result": "23.3% (inactive)"}
    ]},
    {"compound": "O=C(Nc1ccc(OC2CCCCC2)cc1)c1ccc(-c2nn[nH]n2)cc1", "values": [
      {"measurement": "inhibition", "setting": "[1]", "result": 6.17, "unit": "%"},
      {"measurement": "haemolysis", "setting": "[2]", "result": 0.0779, "unit": "%"},
      {"measurement": "inhibition", "setting": "[3]", "result": 1.08, "unit": "%"},
      {"measurement": "inhibition", "setting": "[4]", "result": 6.07, "unit": "%"},
      {"measurement": "inhibition", "setting": "[5]", "result": -15.8, "unit": "%"},
      {"measurement": "inhibition", "setting": "[6]", "result": -1.07, "unit": "%"},
      {"measurement": "inhibition", "setting": "[7]", "result": -0.389, "unit": "%"},
      {"measurement": "inhibition", "setting": "[8]", "result": 17.1, "unit": "%"},
      {"measurement": "inhibition", "setting": "[9]", "result": "7.17% (inactive)"}
    ]},
    {"compound": "NC(=O)C1CCN(c2nc(OCc3ccc(F)nc3)nc(N3CCn4c(nnc4C(F)(F)F)C3)n2)CC1", "values": [
      {"measurement": "inhibition", "setting": "[1]", "result": -3.54, "unit": "%"},
      {"measurement": "haemolysis", "setting": "[2]", "result": 0.123, "unit": "%"},
      {"measurement": "inhibition", "setting": "[3]", "result": -2.57, "unit": "%"},
      {"measurement": "inhibition", "setting": "[4]", "result": -84, "unit": "%"},
      {"measurement": "inhibition", "setting": "[5]", "result": -4.58, "unit": "%"},
      {"measurement": "inhibition", "setting": "[6]", "result": 0.0526, "unit": "%"},
      {"measurement": "inhibition", "setting": "[7]", "result": 1.56, "unit": "%"},
      {"measurement": "inhibition", "setting": "[8]", "result": 11.7, "unit": "%"},
      {"measurement": "inhibition", "setting": "[9]", "result": "16.7% (inactive)"}
    ]}
  ]
}
